# Measured values: patent US5972899A, “Apoptosis induced by Shigella IpaB” (New York University, priority 1996, dated 1999)
# System: J774 cells infected with S. flexneri M90T
# Experiment: LDH release cytotoxicity assay, J774 cells infected with S. flexneri M90T
# Type: cell-based, murine
# Experimental: In the studies the results of which are shown in FIG. 5, 2×10^4 J774 or peritoneal macrophage cells were seeded onto 96-well plates 18 hours before infection with M90T at a multiplicity of infection of 25 bacteria per cell (Clerc, P. L. et al., supra). Two hours after infection, supernatants of the infected macrophages were assayed for LDH using the Cytotox96® kit (Promega) according to the manufacture's instructions. The percent cytotoxicity was calculated as: [formula] where spontaneous release is the amount of LDH activity in supernatants of cells not infected and total release is the LDH activity in macrophage lysates. ICE inhibitor was added 1 h before infection at a concentration of 25 μg/ml.
smiles,measurement,setting,value
CC(=O)N[C@@H](Cc1ccc(O)cc1)C(=O)N[C@H](C(=O)N[C@@H](C)C(=O)N[C@H](C=O)CC(=O)O)C(C)C [Ac-YVAD-CHO],inhibition at 25 µg/mL,"Mus musculus, ICE inhibitor 25 μg/ml added 1 h before infection, M90T at 25 bacteria per cell, LDH release 2 h after infection, read-out: inhibition of S. flexneri-induced cell death",81.5%
same,reversibility of the inhibition of cell death,inhibitor washed away (FIG. 5),reversed by washing away the inhibitor
